Assay results taken from article PMC3726007 (Journal of medicinal chemistry, 2009).
“Also recorded” adds a separate entry of the source. Counter-ions that a name gives are not always drawn.

How the values were obtained:
[1] = test system: α4β2* nicotinic acetylcholine receptors (nAChRs); settings: cited from earlier work
[2] = test system: methamphetamine self-administration; settings: animal models; cited from earlier work
VMAT2 = VMAT2 (Rattus norvegicus, UniProt Q01827); experiment: [3H]-DA uptake inhibition assay in isolated synaptic vesicles; settings: for fold more potent in inhibiting [3H]-DA uptake than in binding to the DTBZ binding site: uptake vs DTBZ binding; for fold less potent in [3H]-DA uptake inhibition than comparator: 7 vs 2, 26 vs 25; for fold more potent in [3H]-DA uptake inhibition than S-configured analogs: 18 and 19 vs 14 and 15
VMAT2, sequence (Q01827 whole entry): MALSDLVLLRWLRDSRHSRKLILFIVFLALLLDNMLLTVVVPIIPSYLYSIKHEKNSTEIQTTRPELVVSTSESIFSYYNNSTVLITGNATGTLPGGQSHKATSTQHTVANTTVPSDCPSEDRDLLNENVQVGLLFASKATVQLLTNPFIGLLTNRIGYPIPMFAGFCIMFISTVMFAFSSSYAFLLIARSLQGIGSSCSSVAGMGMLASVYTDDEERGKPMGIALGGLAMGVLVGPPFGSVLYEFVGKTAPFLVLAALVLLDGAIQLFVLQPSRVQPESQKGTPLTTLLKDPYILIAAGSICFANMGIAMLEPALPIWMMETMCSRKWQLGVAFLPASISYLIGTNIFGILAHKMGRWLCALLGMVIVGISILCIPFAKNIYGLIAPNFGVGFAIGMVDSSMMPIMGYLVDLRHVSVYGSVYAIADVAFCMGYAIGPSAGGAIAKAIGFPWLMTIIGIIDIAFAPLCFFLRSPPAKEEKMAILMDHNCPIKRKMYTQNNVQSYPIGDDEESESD

[3] = biological target: DTBZ binding site on VMAT2 (Rattus norvegicus, UniProt Q01827); experiment: [3H]DTBZ binding assay in rat brain synaptic vesicles; settings: for fold less potent at DTBZ binding site than comparator: 7 vs 2, 26 vs 25
DTBZ binding site on VMAT2, sequence (Q01827 whole entry): as above

water solubility = assay type: physicochemical; settings: qualitative statement

In the case of CN1[C@@H](CC(=O)c2ccccc2)CCC[C@H]1C[C@H](O)c1ccccc1 [Compound 1, lobeline], the “affinity for α4β2* nAChRs” value [1] is listed as “high potency”.
For CN1[C@@H](CCc2ccccc2)CCC[C@H]1CCc1ccccc1 [Compound 2, cis-N-methyl-2,6-diphenethylpiperidine], the “affinity for α4β2* nAChRs” value [1] is given as “little affinity” and the effect on self-administration [2] is given as “decreases methamphetamine self-administration; also recorded: does not itself support self-administration”.
In the case of c1ccc(CC[C@H]2CCC[C@@H](CCc3ccccc3)N2)cc1 [Compound 3, reference compound], the “fold more potent in inhibiting [3H]-DA uptake than in binding to the DTBZ binding site” value (shortened to “fold more potent in inhibiting”) (VMAT2) is reported as “about 100 fold”.
In the case of c1ccc(CC[C@@H]2CC[C@H](CCc3ccccc3)N2)cc1 [Compound 6, cis-2,5-Di-(2-phenethyl)-pyrrolidine hydrochloride], the “fold more potent in inhibiting” value (VMAT2) is reported as “about 100 fold”.
In the case of CN1[C@H](CCc2ccccc2)CC[C@@H]1CCc1ccccc1 [Compound 7, 1-Methyl-cis-2,5-di-(2-phenethyl)-pyrrolidine hydrochloride], the “fold less potent at DTBZ binding site than comparator” value [3] is reported as “about 10 fold”, the “fold less potent in [3H]-DA uptake inhibition than comparator” value (VMAT2) is reported as 10 fold and the “fold more potent in inhibiting” value (VMAT2) is reported as “about 30 fold”.
With c1ccc(CC[C@H]2CC[C@H](CCc3ccccc3)N2)cc1 [Compound 10, (2S,5S)-di-(2-phenethyl)-pyrrolidine hydrochloride] the “fold more potent at DTBZ binding site than N-methyl derivative” value ([3]; 10 vs 11) was “about 10 fold”.
For OC[C@@H](c1ccccc1)N1[C@H](CCc2ccccc2)CC[C@@H]1CCc1ccccc1 [Compound 18, (2′R)-2-(2S,5R)-2,5-Di-(2-phenethyl)-tetrahydro-1H-1-pyrrolyl-2-phenylethan-1-ol], the “fold more potent in [3H]-DA uptake inhibition than S-configured analogs” value (VMAT2) was “about 10 fold”.
For OC[C@@H](c1ccccc1)N1[C@@H](CCc2ccccc2)CC[C@@H]1CCc1ccccc1 [Compound 19, (2′R)-2-(2S,5S)-2,5-Di(2-phenethyl)-tetrahydro-1H-1-pyrrolyl-2-phenylethan-1-ol], the “fold more potent in [3H]-DA uptake inhibition than S-configured analogs” value (VMAT2) was “about 10 fold”.
With c1ccc(C[C@H]2CC[C@@H](Cc3ccccc3)N2)cc1 [Compound 22, cis-2,5-Di(2-benzyl)-pyrrolidine hydrochloride] the water solubility (water solubility) was “water-soluble”.
With c1ccc(CCC[C@@H]2CC[C@H](CCCc3ccccc3)N2)cc1 [Compound 25, Cis-2,5-di(3-phenylpropyl)-pyrrolidine hydrochloride] the “fold more potent in inhibiting” value (VMAT2) was “about 20 fold”.
In the case of CN1[C@H](CCCc2ccccc2)CC[C@@H]1CCCc1ccccc1 [Compound 26, 1-Methyl-cis-2,5-di(3-phenylpropyl)-pyrrolidine hydrochloride], the “fold less potent at DTBZ binding site than comparator” value [3] is reported as 10 fold, the “fold less potent in [3H]-DA uptake inhibition than comparator” value (VMAT2) is reported as “about 10 fold” and the “fold more potent in inhibiting” value (VMAT2) is reported as “about 20 fold”.
